Test results taken from patent US9096518B2, “Substituted hydroxamic acids and uses thereof” (Millennium Pharmaceuticals, Inc., priority 2009, dated 2015).

Target: T1, purified human HDAC6 (Homo sapiens, UniProt Q9UBN7)
T1 construct: purchased BPS Bioscience 5006
T1 sequence (Q9UBN7 1-1215): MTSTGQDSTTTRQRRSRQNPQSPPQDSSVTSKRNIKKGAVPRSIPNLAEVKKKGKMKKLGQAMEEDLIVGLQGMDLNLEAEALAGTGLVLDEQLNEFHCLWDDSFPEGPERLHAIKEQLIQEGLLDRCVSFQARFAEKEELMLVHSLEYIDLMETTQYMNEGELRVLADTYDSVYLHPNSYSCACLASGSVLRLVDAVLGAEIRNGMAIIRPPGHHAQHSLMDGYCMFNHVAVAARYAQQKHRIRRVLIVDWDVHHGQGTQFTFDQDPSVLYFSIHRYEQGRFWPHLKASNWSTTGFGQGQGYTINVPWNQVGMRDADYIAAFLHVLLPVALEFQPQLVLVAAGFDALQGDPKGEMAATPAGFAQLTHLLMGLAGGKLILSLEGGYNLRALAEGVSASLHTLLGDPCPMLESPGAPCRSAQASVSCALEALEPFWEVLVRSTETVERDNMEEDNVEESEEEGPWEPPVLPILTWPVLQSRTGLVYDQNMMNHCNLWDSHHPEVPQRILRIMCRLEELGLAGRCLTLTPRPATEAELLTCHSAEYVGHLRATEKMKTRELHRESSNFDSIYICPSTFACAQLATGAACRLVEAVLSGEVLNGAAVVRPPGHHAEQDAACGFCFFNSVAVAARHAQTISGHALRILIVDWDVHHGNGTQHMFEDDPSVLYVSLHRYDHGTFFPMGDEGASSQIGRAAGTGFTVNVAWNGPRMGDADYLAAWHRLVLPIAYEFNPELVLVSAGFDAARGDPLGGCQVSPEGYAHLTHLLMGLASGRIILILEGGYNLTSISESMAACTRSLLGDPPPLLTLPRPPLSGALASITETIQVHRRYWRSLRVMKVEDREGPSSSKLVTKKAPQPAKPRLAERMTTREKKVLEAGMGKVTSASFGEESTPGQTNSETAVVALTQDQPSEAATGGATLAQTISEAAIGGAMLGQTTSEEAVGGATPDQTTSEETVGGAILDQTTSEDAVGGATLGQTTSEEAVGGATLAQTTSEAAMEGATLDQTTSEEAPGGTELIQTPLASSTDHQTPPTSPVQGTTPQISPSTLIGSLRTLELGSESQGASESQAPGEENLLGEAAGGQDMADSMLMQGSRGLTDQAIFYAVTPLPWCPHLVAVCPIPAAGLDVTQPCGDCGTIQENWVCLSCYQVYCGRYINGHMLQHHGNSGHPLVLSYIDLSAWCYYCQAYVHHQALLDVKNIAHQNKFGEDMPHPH
Experiment: HDAC6 Enzyme Assay
Format: biochemical
Method: To measure the inhibition of HDAC6 activity, purified human HDAC6 (BPS Bioscience; Cat. No. 5006) is incubated with substrate Ac-Arg-Gly-Lys(Ac)-AMC peptide (Bachem Biosciences; Cat. No. I-1925) for 1 hour at 30° C. in the presence of test compounds or vehicle DMSO control. The reaction is stopped with the HDAC inhibitor trichostatin A (Sigma; Cat. No. T8552) and the amount of Arg-Gly-Lys-AMC generated is quantitated by digestion with trypsin (Sigma; Cat. No. T1426) and subsequent measurement of the amount of AMC released using a fluorescent plate reader (Pherastar; BMG Technologies) set at Ex 340 nm and Em 460 nm. Concentration response curves are generated by calculating the fluorescence increase in test compound-treated samples relative to DMSO-treated controls, and enzyme inhibition (IC50) values are determined from those curves.

IC50, 50 to 100 nM:
O=C(NO)c1ccc2c(c1)CCN(C(=O)Cc1ccc(C(F)(F)F)cc1)C2 [Compound 3, N-hydroxy-2-{[4-(trifluoromethyl)phenyl]acetyl}-1,2,3,4-tetrahydroisoquinoline-6-carboxamide]
O=C(NO)c1ccc2c(c1)CCN(CCc1cccc3ccccc13)C2 [Compound 58, N-hydroxy-2-[2-(1-naphthyl)ethyl]-1,2,3,4-tetrahydroisoquinoline-6-carboxamide]
CC(C)(C)OC(=O)Nc1ccc(-c2cc(C(=O)N3CCc4cc(C(=O)NO)ccc4C3)no2)cc1 [Compound 237, tert-butyl[4-(3-{[6-[(hydroxyamino)carbonyl]-3,4-dihydroisoquinolin-2(1H)-yl]carbonyl}isoxazol-5-yl)phenyl]carbamate]
O=C(NO)c1ccc2c(c1)CCN(C(=O)c1ccc(-n3cccc3)cc1)C2 [Compound 14, N-hydroxy-2-[4-(1H-pyrrol-1-yl)benzoyl]-1,2,3,4-tetrahydroisoquinoline-6-carboxamide]
O=C(NO)c1ccc2c(c1)CCN(C(=O)COc1ccccc1)C2 [Compound 21, N-hydroxy-2-(phenoxyacetyl)-1,2,3,4-tetrahydroisoquinoline-6-carboxamide]
O=C(NO)c1ccc2c(c1)CCN(Cc1ccccc1)C2 [Compound 57, 2-benzyl-N-hydroxy-1,2,3,4-tetrahydroisoquinoline-6-carboxamide]
CC(C)(C)C(=O)N1Cc2ccc(C(=O)NO)cc2C1 [Compound 81, 2-(2,2-dimethylpropanoyl)-N-hydroxyisoindoline-5-carboxamide]
O=C(NO)c1ccc2c(c1)CCN(S(=O)(=O)Cc1ccccc1)C2 [Compound 39, 2-(benzylsulfonyl)-N-hydroxy-1,2,3,4-tetrahydroisoquinoline-6-carboxamide]
O=C(NO)c1ccc2c(c1)CCN(C(=O)C1CCCCCC1)C2 [Compound 22, 2-(cycloheptylcarbonyl)-N-hydroxy-1,2,3,4-tetrahydroisoquinoline-6-carboxamide]
Cc1n[nH]c(C)c1S(=O)(=O)N1CCc2cc(C(=O)NO)ccc2C1 [Compound 54, 2-[(3,5-dimethyl-1H-pyrazol-4-yl)sulfonyl]-N-hydroxy-1,2,3,4-tetrahydroisoquinoline-6-carboxamide]

IC50, 100 to 500 nM:
CC(C)(C)C(=O)N1CCc2ccc(C(=O)NO)cc2CC1 [Compound 85, 3-(2,2-dimethylpropanoyl)-N-hydroxy-2,3,4,5-tetrahydro-1H-3-benzazepine-7-carboxamide]
CC(=O)N/C(=C\c1ccccc1)C(=O)N1CCCc2cc(C(=O)NO)ccc2C1 [Compound 254, 2-[(2Z)-2-(acetylamino)-3-phenylprop-2-enoyl]-N-hydroxy-2,3,4,5-tetrahydro-1H-2-benzazepine-7-carboxamide]
O=C(NO)c1ccc2c(c1)CCN(S(=O)(=O)c1ccc(Oc3ccncc3)cc1)C2 [Compound 55, N-hydroxy-2-{[4-(pyridin-4-yloxy)phenyl]sulfonyl}-1,2,3,4-tetrahydroisoquinoline-6-carboxamide]
O=C(NO)c1ccc2c(c1)CCN(Cc1ccc3nonc3c1)C2 [Compound 65, 2-(2,1,3-benzoxadiazol-5-ylmethyl)-N-hydroxy-1,2,3,4-tetrahydroisoquinoline-6-carboxamide]
O=C(NO)c1ccc2c(c1)CCCN(C(=O)C1CCCCC1)C2 [Compound 247, 2-(cyclohexylcarbonyl)-N-hydroxy-2,3,4,5-tetrahydro-1H-2-benzazepine-7-carboxamide]
O=C(NO)c1ccc2c(c1)CCCN(C(=O)c1ccc(-c3ccccc3)cc1)C2 [Compound 244, 2-(biphenyl-4-ylcarbonyl)-N-hydroxy-2,3,4,5-tetrahydro-1H-2-benzazepine-7-carboxamide]
O=C(NO)c1ccc2c(c1)CCN(Cc1cccc(OC(F)(F)F)c1)C2 [Compound 109, N-hydroxy-2-[3-(trifluoromethoxy)benzyl]-1,2,3,4-tetrahydroisoquinoline-6-carboxamide]
O=C(NO)c1ccc2c(c1)CCN(C(=O)C1CCOC1)C2 (centres unmarked) [Compound 24, N-hydroxy-2-(tetrahydrofuran-3-ylcarbonyl)-1,2,3,4-tetrahydroisoquinoline-6-carboxamide]
CC(=O)N1CCC(C(=O)N2CCc3cc(C(=O)NO)ccc3C2)CC1 [Compound 36, 2-[(1-acetylpiperidin-4-yl)carbonyl]-N-hydroxy-1,2,3,4-tetrahydroisoquinoline-6-carboxamide]
O=C(NO)c1ccc2c(c1)CCN(Cc1cccc3nsnc13)C2 [Compound 69, 2-(2,1,3-benzothiadiazol-4-ylmethyl)-N-hydroxy-1,2,3,4-tetrahydroisoquinoline-6-carboxamide]
O=C(NO)c1ccc2c(c1)CCN(C(=O)c1ccc(C(F)(F)F)cc1)CC2 [Compound 87, N-hydroxy-3-[4-(trifluoromethyl)benzoyl]-2,3,4,5-tetrahydro-1H-3-benzazepine-7-carboxamide]
O=C(NO)c1ccc2c(c1)CCCN(C(=O)C1CCCCCC1)C2 [Compound 246, 2-(cycloheptylcarbonyl)-N-hydroxy-2,3,4,5-tetrahydro-1H-2-benzazepine-7-carboxamide]

IC50, < 50 nM:
O=C(NO)c1ccc2c(c1)CCN(C(=O)Cc1ccc(-c3ccccc3)cc1)C2 [Compound 30, 2-(biphenyl-4-ylacetyl)-N-hydroxy-1,2,3,4-tetrahydroisoquinoline-6-carboxamide]
O=C(NO)c1ccc2c(c1)CCN(C(=O)CC1CCCC1)C2 [Compound 25, 2-(cyclopentylacetyl)-N-hydroxy-1,2,3,4-tetrahydroisoquinoline-6-carboxamide]
CC(C)(C)c1ccccc1NC(=O)N1CCc2cc(C(=O)NO)ccc2C1 [Compound 96, N^2-(2-tert-butylphenyl)-N^6-hydroxy-3,4-dihydroisoquinoline-2,6(1H)-dicarboxamide]
O=C(NO)c1ccc2c(c1)CCCN(C(=O)c1cc3cc(Cl)ccc3[nH]1)C2 [Compound 240, 2-[(5-chloro-1H-indol-2-yl)carbonyl]-N-hydroxy-2,3,4,5-tetrahydro-1H-2-benzazepine-7-carboxamide]
COc1cccc2cc(C(=O)N3CCCc4cc(C(=O)NO)ccc4C3)oc12 [Compound 242, N-hydroxy-2-[(7-methoxy-1-benzofuran-2-yl)carbonyl]-2,3,4,5-tetrahydro-1H-2-benzazepine-7-carboxamide]
O=C(NO)c1ccc2c(c1)CCCN(C(=O)c1cc3ccccc3s1)C2 [Compound 239, 2-(1-benzothien-2-ylcarbonyl)-N-hydroxy-2,3,4,5-tetrahydro-1H-2-benzazepine-7-carboxamide]
O=C(NO)c1ccc2c(c1)CCN(C(=O)C13CC4CC(CC(O)(C4)C1)C3)C2 [Compound 248, N-hydroxy-2-[(3-hydroxy-1-adamantyl)carbonyl]-1,2,3,4-tetrahydroisoquinoline-6-carboxamide]
CCc1cccc(C)c1NC(=O)N1CCc2cc(C(=O)NO)ccc2C1 [Compound 94, N^2-(2-ethyl-6-methylphenyl)-N^6-hydroxy-3,4-dihydroisoquinoline-2,6(1H)-dicarboxamide]

IC50, > 500 nM:
O=C(NO)c1ccc2c(c1)CCN(Cc1nccn1Cc1ccccc1)C2 [Compound 74, 2-[(1-benzyl-1H-imidazol-2-yl)methyl]-N-hydroxy-1,2,3,4-tetrahydroisoquinoline-6-carboxamide]
O=C(NO)c1ccc2c(c1)CCCN(C(=O)c1ccc(C(F)(F)F)cc1)C2 [Compound 84, N-hydroxy-2-[4-(trifluoromethyl)benzoyl]-2,3,4,5-tetrahydro-1H-2-benzazepine-7-carboxamide]
